Measurements reported in patent US9322034B2, “Compositions and methods for detecting and modulating cell death by a translation regulated gene expression system” (Wayne State University, priority 2007, dated 2016).

Legend:
[1] = test system: HEK293 TRplp-EYFP and TRplp-fLUC colonies; assay: Microplate reader screen at fixed time and toxin concentration; assay type: cell-based, human; details: 12 hr
Procedure: For this example, HEK293 cells expressing the TRplp-EYFP, TRdm-EYFP, TRplp fLUC and TRdm-fLUC expression cassettes are evaluated using a microplate reader. To quantitate the TR translational response, 24,000 cells are plated in a 96-well microtiter plates and allowed to grow for about 40 hr to achieve the proper cell density prior to incubation with a toxic agent. Each well is cultured with complete DMEM medium containing either no toxin or a defined concentration of toxin and incubated at 37 C for specific time periods. At that time, fluorescence or chemiluminescence on a FLUOstar Optima (BMG Labtech) microplate reader is used measure TR-ORF response.
Direct detection of the spontaneously fluorescent EYFP protein fluorophore is achieved by excitation of samples in black optical bottom 96-well trays with a fluorescein filter (545 nm) or a YFP filter (YFPex) and emission measured at 590 nm or 544 nm using gains of 1000-2000. To reduce the background fluorescence associated with media components, the trays are centrifuged at 1200 rpm, RT for 3 min to collect any floating cells, and the media replaced with 200 microliters of 1×PBS prior to detection. For the fLUC protein, protein activity is quantified by luminescence produced during live cell or lysed cell luciferase assays. […] Luminescence was detected using lens filter at gains of 2000-3000. […]

[2] = test system: HEK293 cells expressing the TRplp-fLUC or TRdm-fLUC expression cassette; assay: Cytotoxicity assay by Western blot, monocistronic TR-fLUC cassettes; assay type: cell-based, human
Procedure: For this example, expression and regulation of the TRplp-EYFP, TRdm-EYFP, TRplp-fLUC, or TRdm-fLUC expression cassettes in stably transformed HEK293 cells are validated using Western blot analysis. Cell lines or pools are grown in six-well trays or 60 mm dishes to about 60% confluence and treated with complete medium supplemented with a toxic chemical. […] Control samples are treated with fresh medium. Treated and control cells were removed by pipette, collected in media, pelleted for 5 min at 800 rpm (room temperature), and either stored at −70/−80° C. or immediately processed for total proteins.
For protein extraction, cells are resuspended in equal volumes of Suspension Buffer (100 mM NaCl, 10 mM Tris-HCl [pH 7.6], 1 mM EDTA, 1 mg/mL aprotinin, 100 μg/mL PMSF) and 2×SDS Buffer (100 mM Tris-HCl [pH 6.8], 4% SDS, 20% glycerol, 200 mM DTT). Frozen cells are thawed on ice prior to resuspension. The extracts are homogenized by several passages through a syringe fitted with a 26 G needle. Samples are subsequently incubated at RT for 1-2 hr. Samples are transferred to −70/−80° C. for storage or applied to an SDS PAGE gel and examined by Western blot analysis.
To insure equal protein loading levels on Western blots, 10 μL of each protein extract are initially resolved by SDS PAGE, fixed overnight in Preblot gel fixer (25% isopropanol, 10% acetic acid), and stained in 0.05% Coomassie blue (0.05% brilliant blue R, 50% methanol, 10% acetic acid) for 20 min, RT. Gels are destained in 10% acetic acid and dried under vacuum. Using the dried gels, any necessary volume adjustment was made to samples prior to Western blotting.
Western blot analysis is a well established technique in the art and is summarized in the following. Following SDS PAGE gel resolution and protein transfer to a solid membrane support by electrophoresis, the membranes are dried overnight. […] Similarly, fLUC protein is detected using an anti-fLUC antibody (Sigma; 1:1000 dilution). After incubation with a primary antibody and extensive washing (1×PBS-T), proteins binding the primary antibody are detected by incubation with a horseradish peroxidase (HRP) conjugated anti-rabbit or anti-mouse antibody (Amersham; 1:5000 to 1:10000 dilution). Following incubation with the secondary antibody and extensive washing, reactive proteins are detected with the ECL reagent system (Amersham) as described by the vendor.
Following treatment with toxic levels of the calcium ionophore A23187, highly significant increases in fLuc protein levels are observed in the stressed and dying cells that were not evident in untreated cultures. Individual protein bands are quantitated by densitometry on a Beckman DU7400 spectrophotometer.

CNc1ccc2oc(C[C@H]3O[C@@]4(CC[C@H]3C)O[C@H]([C@H](C)C(=O)c3ccc[nH]3)[C@H](C)C[C@H]4C)nc2c1C(=O)O [calcium ionophore A23187]
TR response in screening assay ([1]; HEK293 TRplp-EYFP subclone #41, 6.7 micromolar): significant TR responses | TR response in screening assay ([1]; HEK293 TRplp-fLUC subclone #3, 6.7 micromolar, live cell assay): significant TR responses | average increase in fLuc protein levels in stressed and dying cells ([2]; HEK293 TRdm-fLuc cells, n=6): 524.3% | average increase in fLuc protein levels in stressed and dying cells ([2]; HEK293 TRplp-fLuc expressing cells, n=5): 402.8% | increases in fLUC protein levels, % of the protein levels detected in untreated TRplp-fLUC/TRdm-fLUC cells ([2]; cell pools and lines, toxic levels (5-6.7 micromolar), densitometry of Western blot): 160-800% | fLUC protein levels in stressed and dying TR-fLUC cells, % of the protein levels of cells expressing cap-dependent CMV-fLuc ([2]; toxin-treated cells, FIG. 6): ≤ 110%
